This experiment deals with mice. Nature of the experiment: Dark Avoidance Assay (block of scopolamine-induced memory impairment in mice, 24 hours). In kind it is in vivo. As to the method: In this assay mice are tested for their ability to remember an unpleasant stimulus for a period of 24 hours. A mouse is placed in a chamber than contains a dark compartment; a strong incandescent light drives it to the dark compartment, where an electric shock is administered through metal plates on the floor. The animal is removed from the testing apparatus and tested again, 24 hours later, for the ability to remember the electric shock.
If scopolamine, an anticholinergic agent that is known to cause memory impairment, is administered before an animal's initial exposure to the test chamber, the animal re-enters the dark compartment shortly after being placed in the test chamber 24 hours later. This effect of scopolamine is blocked by an active test compound, resulting in greater interval before re-entry into the dark compartment.
The results for an active compound are expressed as the percent of a group of animals in which the effect of scopolamine is blocked, as manifested by an increased interval between being placed in the test chamber and re-entering the dark compartment.

Three molecules from US4742061A, “Benzoc[c]-1,5-naphthyridines and related compounds as memory enhancing agents” (priority 1986, dated 1988) can be followed below.

On to `c1ccc2c3c(ncc2c1)CCCN3` [1,2,3,4-Tetrahydrobenzo[c]-1,5-naphthyridine], for which the “% of Animals Greater than Scopolamine” value came out at 27% (dose 1.25 mg/kg of body weight) and 25% (dose 2.5 mg/kg of body weight).
Take `CC[C@@H]1C(=O)OC[C@@H]1Cc1cncn1C` [Pilocarpine]: where the note is “dose 5.0 mg/kg of body weight”, the “% of Animals Greater than Scopolamine” value is given as 13%.
As to `Nc1c2c(nc3ccccc13)CCCC2` [Tacrine, 9-amino-1,2,3,4-tetrahydro-acridine], the “% of Animals Greater than Scopolamine” value (dose 0.63 mg/kg of body weight) was determined as 13%.
